Each structure is given as a SMILES string. pIC50: −log10 of the molar value.

The inhibition is the share of the control response that was lost under treatment. By pIC50 is commonly meant the negative decadic logarithm of the IC50, by convention in mol/L.

The target of the first assay is T1, vanilloid receptor (Rattus norvegicus, UniProt O35433).
T1 construct: DRG nerve cells from the primary culture of 2 days were equilibrated; endogenous in cells; host or cells: primary culture of dorsal root ganglion neurons from neonatal SD rats
T1 sequence (O35433 whole entry): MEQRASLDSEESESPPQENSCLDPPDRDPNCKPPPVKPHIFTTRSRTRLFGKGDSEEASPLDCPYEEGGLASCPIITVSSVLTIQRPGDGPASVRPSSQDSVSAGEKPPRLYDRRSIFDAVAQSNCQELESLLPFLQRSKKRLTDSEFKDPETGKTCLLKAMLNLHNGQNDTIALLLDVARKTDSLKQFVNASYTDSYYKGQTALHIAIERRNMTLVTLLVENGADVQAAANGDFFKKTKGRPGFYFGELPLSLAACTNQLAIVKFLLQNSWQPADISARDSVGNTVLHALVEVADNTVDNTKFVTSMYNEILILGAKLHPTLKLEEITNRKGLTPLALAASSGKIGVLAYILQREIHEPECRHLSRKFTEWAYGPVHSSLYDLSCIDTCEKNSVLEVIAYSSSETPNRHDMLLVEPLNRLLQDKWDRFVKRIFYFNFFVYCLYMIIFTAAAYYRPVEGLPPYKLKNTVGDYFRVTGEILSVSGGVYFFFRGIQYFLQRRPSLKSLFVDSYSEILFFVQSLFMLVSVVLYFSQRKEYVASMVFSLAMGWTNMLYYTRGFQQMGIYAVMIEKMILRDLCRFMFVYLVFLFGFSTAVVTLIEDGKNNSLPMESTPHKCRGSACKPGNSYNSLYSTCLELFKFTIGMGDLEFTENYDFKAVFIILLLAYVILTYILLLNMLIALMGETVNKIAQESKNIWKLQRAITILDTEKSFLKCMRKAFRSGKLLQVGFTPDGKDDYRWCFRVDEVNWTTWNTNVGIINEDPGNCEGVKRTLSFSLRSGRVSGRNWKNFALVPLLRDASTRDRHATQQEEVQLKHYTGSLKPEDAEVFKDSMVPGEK
The assay can be described thus: 45Ca influx test (antagonist calcium uptake test) in rat DRG neurons stimulated with capsaicin. The class given is cell-based. The note with it: DRG neuron; @3 μM; neonatal SD rat DRG neurons; capsaicin 0.5 μM; read-out: Antagonist Calcium Uptake Test, percent inhibition of capsaicin response. As to the method:
1) Separation of spinal dorsal root ganglia (DRG) in newborn rats and primary culture thereof
Neonatal (2-3 clay old or younger than 2-3 day old) SD rats were put in ice for 5 minutes to anesthetize and disinfected with 70% ethanol. DRG of all part of spinal cord were dissected (Wood et al., 1988, J. Neurosci. 8, pp 3208-3220) and collected in DME/F12 medium to which 1.2 g/l sodium bicarbonate and 50 mg/l gentamycin were added. The DRG were incubated sequentially at 37° C. for 30 mins in 200 U/ml collagenase and 2.5 mg/ml trypsin, separately. The ganglia were washed twice with DME/F12 medium supplemented with 10% horse serum, triturated through a fire-polished Pasteur pipette, filtered through Nitex 80 membrane to obtain single cell suspension and the suspension was washed once more. This was subjected to centrifugation, then resuspended in cell culture medium at certain level of cell density. As the cell culture medium, DME/F12 medium supplemented with 10% horse serum was diluted with identical medium conditioned by C6 glioma cells 2 clays on a confluent monolayer (1:1), and NGF (Nerve Growth Factor) was added to adjust 200 ng/ml as final concentration. After the cells were grown 2 days in medium where cytosine arabinoside (Ara-C, 100 μM) was added to kill dividing nonneuronal cells, medium was changed to one without Ara-C. The resuspended cells were plated at a density of 1500-2000 neurons/well onto Terasaki plates previously coated with 10 μg/ml poly-D-ornithine.
2) ^45Ca Influx Experiments
DRG nerve cells from the primary culture of 2 days were equilibrated by washing 4 times with HEPES (10 mM, pH 7.4)-buffered Ca^2+, Mg^2+-free HBSS (H-HBSS). The solution in each well was removed from the individual well. Medium containing the test compound plus capsaicin (final concentration 0.5 μM) and ^45Ca (final concentration 10 μCi/ml) in H-HBSS was added to each well and incubated at room temperature for 10 nuns. Terasaki plates were washed five times with H-HBSS and dried at room temperature. To each well, 0.3% SDS (10 μl) was added to elute ^45Ca. After the addition of scintillation cocktail of into each well, the amount of ^45Ca influx into neuron was measured by counting radioactivity. Antagonistic activities of test compounds against vanilloid receptor were calculated as percent of the inhibition of maximal response of capsaicin at a concentration of 0.5 μM.
On to `C=Cc1cc(-c2ccc(C(=O)N[C@H](C)c3cc(F)c(NS(C)(=O)=O)c(F)c3)o2)cc(C(F)(F)F)c1` [Example 114, 5-(3-Trifluoromethyl-5-vinyl-phenyl)-furan-2-carboxylic acid [1-(3,5-difluoro-4-methanesulfonylamino-phenyl)-ethyl]-amide], for which the inhibition at 3 µM stood at 93%.

Staying with this assay, now noted: neonatal SD rat DRG neurons; capsaicin 0.5 μM; 45Ca.
For the molecule `CCN(CC)c1cccc(Oc2nc(C(=O)N[C@H](C)c3cc(F)c(NS(C)(=O)=O)c(F)c3)co2)c1` [Example 8, 2-(3-Diethylamino-phenoxy)-oxazole-4-carboxylic acid [1-(3,5-difluoro-4-methanesulfonylamino-phenyl)-ethyl]-amide], the pIC50 was 5.57. Still for that read-out and setting: next, `C[C@@H](NC(=O)c1ccc(-c2cc(C3CC3)cc(C3CC3)c2)o1)c1cc(F)c(NS(C)(=O)=O)c(F)c1` [Example 108, 5-(3,5-Dicyclopropyl-phenyl)-furan-2-carboxylic acid [1-(3,5-difluoro-4-methanesulfonylamino-phenyl)-ethyl]-amide]: 6.28; `C=C1CCc2c(Oc3nc(C(=O)N[C@H](C)c4cc(F)c(NS(C)(=O)=O)c(F)c4)co3)cccc21` [Example 28, 2-(1-Methylene-indan-4-yloxy)-oxazole-4-carboxylic acid [1-(3,5-difluoro-4-methanesulfonylamino-phenyl)-ethyl]-amide]: 6.09; `C[C@@H](NC(=O)c1coc(Oc2cc(C(F)(F)F)ccc2C2CC2)n1)c1cc(F)c(NS(C)(=O)=O)c(F)c1` [Example 54, 2-(2-Cyclopropyl-5-trifluoromethyl-phenoxy)-oxazole-4-carboxylic acid [1-(3,5-difluoro-4-methanesulfonylamino-phenyl)-ethyl]-amide]: 5.54. The same measure, in the same setting: as for `CCC1CCc2c(Oc3nc(C(=O)N[C@H](C)c4cc(F)c(NS(C)(=O)=O)c(F)c4)co3)cccc21` (stereo partly shown) [Example 38, 2-(1-Ethyl-indan-4-yloxy)-oxazole-4-carboxylic acid [1-(3,5-difluoro-4-methanesulfonylamino-phenyl)-ethyl]-amide], the figure is 6.40. Same read-out and setting: next, `C[C@@H](NC(=O)c1coc(-c2ccc(-c3ccccc3)cc2)n1)c1cc(F)c(NS(C)(=O)=O)c(F)c1` [Example 78, 2-Biphenyl-4-yl-oxazole-4-carboxylic acid [1-(3,5-difluoro-4-methanesulfonylamino-phenyl)-ethyl]-amide]: under 5.00.

For `C[C@@H](NC(=O)c1coc(-c2cccc(C(F)(F)F)c2F)n1)c1cc(F)c(NS(C)(=O)=O)c(F)c1` (stereo in doubt) [Example 79, 2-(2-Fluoro-3-trifluoromethyl-phenyl)-oxazole-4-carboxylic acid [1-(3,5-difluoro-4-methanesulfonylamino-phenyl)-ethyl]-amide], the pIC50 was 6.00.

`CS(=O)(=O)Nc1c(F)cc(CNC(=O)c2ccc(-c3ccc(C(F)(F)F)cc3)s2)cc1F` [Example 60, 5-(4-Trifluoromethyl-phenyl)-thiophene-2-carboxylic acid 3,5-difluoro-4-methanesulfonylamino-benzylamide]: the pIC50 is 5.21. Same read-out and setting: as for `CS(=O)(=O)Nc1c(F)cc(CNC(=O)c2cc(-c3ccc(Br)cc3)oc2C(F)(F)F)cc1F` [Example 61, 5-(4-Bromo-phenyl)-2-trifluoromethyl-furan-3-carboxylic acid 3,5-difluoro-4-methanesulfonylamino-benzylamide], the figure is 5.55; as for `COc1ccc(C(C)C)cc1-c1nc(C(=O)N[C@H](C)c2cc(F)c(NS(C)(=O)=O)c(F)c2)co1` [Example 77, 2-(5-Isopropyl-2-methoxy-phenyl)-oxazole-4-carboxylic acid [1-(3,5-difluoro-4-methanesulfonylamino-phenyl)-ethyl]-amide], 5.70; as for `CC1CCCc2c(Oc3nc(C(=O)N[C@H](C)c4cc(F)c(NS(C)(=O)=O)c(F)c4)co3)cccc21` (stereo partly shown) [Example 39, 2-(5-Methyl-5,6,7,8-tetrahydro-naphthalen-1-yloxy)-oxazole-4-carboxylic acid [1-(3,5-difluoro-4-methanesulfonylamino-phenyl)-ethyl]-amide], 6.54. On the same count and under the same terms, as for `C[C@@H](NC(=O)c1coc(Oc2cccc(C(F)(F)F)c2Cl)n1)c1cc(F)c(NS(C)(=O)=O)c(F)c1` [Example 45, 2-(2-Chloro-3-trifluoromethyl-phenoxy)-oxazole-4-carboxylic acid [1-(3,5-difluoro-4-methanesulfonylamino-phenyl)-ethyl]-amide], the figure is 6.11; as for `C[C@@H](NC(=O)c1coc(Oc2cccc3c2OC(C)(C)C3)n1)c1cc(F)c(NS(C)(=O)=O)c(F)c1` (stereo in doubt) [Example 34, 2-(2,2-Dimethyl-2,3-dihydro-benzofuran-7-yloxy)-oxazole-4-carboxylic acid [1-(3,5-difluoro-4-methanesulfonylamino-phenyl)-ethyl]-amide], 6.40.

`CS(=O)(=O)Nc1c(F)cc(CNC(=O)c2ccc(-c3cccc(C(F)(F)F)c3)s2)cc1F` [Example 65, 5-(3-Trifluoromethyl-phenyl)-thiophene-2-carboxylic acid 3,5-difluoro-4-methanesulfonylamino-benzylamide]: the pIC50 is 5.57. With `C[C@@H](NC(=O)c1coc(-c2ccc3ccccc3c2)n1)c1cc(F)c(NS(C)(=O)=O)c(F)c1` [Example 89, 2-Naphthalen-2-yl-oxazole-4-carboxylic acid [1-(3,5-difluoro-4-methanesulfonylamino-phenyl)-ethyl]-amide], the pIC50 was 5.57. In the case of `C[C@@H](NC(=O)c1coc(-c2cccc(-c3ccccc3)c2)n1)c1cc(F)c(NS(C)(=O)=O)c(F)c1` [Example 70, 2-Biphenyl-3-yl-oxazole-4-carboxylic acid [1-(3,5-difluoro-4-methanesulfonylamino-phenyl)-ethyl]-amide], the pIC50 is 6.06. Still for that read-out and setting: as for `C[C@@H](NC(=O)c1cc(-c2ccc(Br)cc2)oc1C(F)(F)F)c1cc(F)c(NS(C)(=O)=O)c(F)c1` [Example 62, 5-(4-Bromo-phenyl)-2-trifluoromethyl-furan-3-carboxylic acid [1-(3,5-difluoro-4-methanesulfonylamino-phenyl)-ethyl]-amide], the figure is 6.36; as for `Cc1ccc(C(C)C)cc1Oc1nc(C(=O)N[C@H](C)c2cc(F)c(NS(C)(=O)=O)c(F)c2)co1` [Example 47, 2-(5-Isopropyl-2-methyl-phenoxy)-oxazole-4-carboxylic acid [1-(3,5-difluoro-4-methanesulfonylamino-phenyl)-ethyl]-amide], 6.21. On to `CC(C)Oc1cccc(Oc2nc(C(=O)N[C@H](C)c3cc(F)c(NS(C)(=O)=O)c(F)c3)co2)c1` [Example 48, 2-(3-Isopropoxy-phenoxy)-oxazole-4-carboxylic acid [1-(3,5-difluoro-4-methanesulfonylamino-phenyl)-ethyl]-amide], for which the pIC50 is 5.92.

Turning to `C[C@@H](NC(=O)c1coc(Oc2cccc(C#N)c2)n1)c1cc(F)c(NS(C)(=O)=O)c(F)c1` [Example 17, 2-(3-Cyano-phenoxy)-oxazole-4-carboxylic acid [1-(3,5-difluoro-4-methanesulfonylamino-phenyl)-ethyl]-amide], the pIC50 is under 5.00. Take `C=C(C)c1cc(Oc2nc(C(=O)N[C@H](C)c3cc(F)c(NS(C)(=O)=O)c(F)c3)co2)cc(C(F)(F)F)c1` [Example 43, 2-(3-Isopropenyl-5-trifluoromethyl-phenoxy)-oxazole-4-carboxylic acid [1-(3,5-difluoro-4-methanesulfonylamino-phenyl)-ethyl]-amide]: the pIC50 was 6.02. Same read-out and setting: next, `CC(C)c1cccc(Oc2ccc(C(=O)N[C@H](C)c3cc(F)c(NS(C)(=O)=O)c(F)c3)o2)c1` [Example 59, 5-(3-Isopropyl-phenoxy)-furan-2-carboxylic acid [1-(3,5-difluoro-4-methanesulfonylamino-phenyl)-ethyl]-amide]: 6.00; `C[C@@H](NC(=O)c1coc(Oc2ccc(C(F)(F)F)cc2)n1)c1cc(F)c(NS(C)(=O)=O)c(F)c1` [Example 6, 2-(4-Trifluoromethyl-phenoxy)-oxazole-4-carboxylic acid [1-(3,5-difluoro-4-methanesulfonylamino-phenyl)-ethyl]-amide]: 5.30. Regarding `C[C@@H](NC(=O)c1csc(Cc2ccc(C(C)(C)C)cc2)n1)c1cc(F)c(NS(C)(=O)=O)c(F)c1` [Example 10, (R)—N-[1-(3,5-Difluoro-4-methanesulfonylamino-phenyl)-ethyl]-2-(4-t-butylbenzyl)-thiazole-4-amide], the pIC50 was 5.19.
